In patent US20210267204A1, “MICROBIOCIDAL OXADIAZOLE DERIVATIVES” (SYNGENTA CROP PROTECTION AG, priority 2018, published 2021) one finds inhibition, melting point and pest or weed control data, which are given here for twelve molecules.

Data set [1] deals with Glomerella lagenarium (Colletotrichum lagenarium). The experiment in a line: Fungicidal activity against Glomerella lagenarium (Colletotrichum lagenarium) liquid culture / cucumber / preventative (anthracnose). The format is cell-based. Particulars: Colletotrichum orbiculare; 20 ppm in the applied formulation; liquid culture in PDB, 24° C.; 3 to 4 days after application; compared to untreated control; read-out: disease control (inhibition of growth measured photometrically). Here is the method: Mycelia fragments or conidia suspensions of a fungus prepared either freshly from liquid cultures of the fungus or from cryogenic storage, are directly mixed into nutrient broth. DMSO solutions of the test compound (max. 10 mg/mL) are diluted with 0.025% Tween20 by a factor of 50 and 10 μL of this solution is pipetted into a microtiter plate (96-well format). The nutrient broth containing the fungal spores/mycelia fragments is then added to give an end concentration of the tested compound. The test plates are incubated in the dark at 24° C. and 96% relative humidity (rh). The inhibition of fungal growth is determined photometrically after 2 to 7 days, depending on the pathosystem, and percent antifungal activity relative to the untreated check is calculated. Conidia of the fungus from cryogenic storage are directly mixed into nutrient broth (PDB—potato dextrose broth). After placing a (DMSO) solution of test compound into a microtiter plate (96-well format), the nutrient broth containing the fungal spores is added. The test plates are incubated at 24° C. and the inhibition of growth is measured photometrically 3 to 4 days after application. The following compounds at 20 ppm in the applied formulation give at least 80% disease control in this test when compared to untreated control under the same conditions, which show extensive disease development.

The subject of a further data set is Phakopsora pachyrhizi. The experiment in a line: Fungicidal activity against Phakopsora pachyrhizi / soybean / leaf disc preventative (Asian soybean rust). The format is in vivo. Particulars: foliar, 200 ppm in the applied formulation, soybean leaf disks, inoculated one day after application, assessed 12 to 14 days after application, compared to untreated, read-out: disease control. Here is the method: Leaf disks or leaf segments of various plant species are cut from plants grown in a greenhouse. The cut leaf disks or segments are placed in multiwell plates (24-well format) onto water agar. The leaf disks are sprayed with a test solution before (preventative) or after (curative) inoculation. Compounds to be tested are prepared as DMSO solutions (max. 10 mg/mL) which are diluted to the appropriate concentration with 0.025% Tween20 just before spraying. The inoculated leaf disks or segments are incubated under defined conditions (temperature, relative humidity, light, etc.) according to the respective test system. A single evaluation of disease level is carried out 3 to 14 days after inoculation, depending on the pathosystem. Percent disease control relative to the untreated check leaf disks or segments is then calculated. Soybean leaf disks are placed on water agar in multiwell plates (24-well format) and sprayed with the formulated test compound diluted in water. One day after application leaf discs are inoculated by spraying a spore suspension on the lower leaf surface. After an incubation period in a climate cabinet of 24-36 hours in darkness at 20° C. and 75% rh leaf disc are kept at 20° C. with 12 hours light/day and 75% rh. The activity of a compound is assessed as percent disease control compared to untreated when an appropriate level of disease damage appears in untreated check leaf disks (12 to 14 days after application). The following compounds at 200 ppm in the applied formulation give at least 80% disease control in this test when compared to untreated control leaf disks under the same conditions, which show extensive disease development.

The test system of data set [2] is Puccinia recondita f. sp. tritici. As to the kind of experiment: Fungicidal activity against Puccinia recondita f. sp. tritici / wheat / leaf disc curative (brown rust). The class given is in vivo. Particulars: foliar, 200 ppm in the applied formulation, wheat leaf segments cv. Kanzler, applied 1 day after inoculation, assessed 6 to 8 days after application, compared to untreated, read-out: disease control. The procedure:
Leaf disks or leaf segments of various plant species are cut from plants grown in a greenhouse. The cut leaf disks or segments are placed in multiwell plates (24-well format) onto water agar. The leaf disks are sprayed with a test solution before (preventative) or after (curative) inoculation. Compounds to be tested are prepared as DMSO solutions (max. 10 mg/mL) which are diluted to the appropriate concentration with 0.025% Tween20 just before spraying. The inoculated leaf disks or segments are incubated under defined conditions (temperature, relative humidity, light, etc.) according to the respective test system. A single evaluation of disease level is carried out 3 to 14 days after inoculation, depending on the pathosystem. Percent disease control relative to the untreated check leaf disks or segments is then calculated. Wheat leaf segments cv. Kanzler are placed on agar in multiwell plates (24-well format). The leaf segments are then inoculated with a spore suspension of the fungus. Plates were stored in darkness at 19° C. and 75% relative humidity. The formulated test compound diluted in water was applied 1 day after inoculation. The leaf segments were incubated at 19° C. and 75% relative humidity under a light regime of 12 hours light/12 hours darkness in a climate cabinet and the activity of a compound was assessed as percent disease control compared to untreated when an appropriate level of disease damage appears in untreated check leaf segments (6 to 8 days after application). The following compounds at 200 ppm in the applied formulation give at least 80% disease control in this test when compared to untreated control leaf disks under the same conditions, which show extensive disease development.

Data set [3] shares this test system. The experiment in a line: Fungicidal activity against Puccinia recondita f. sp. tritici / wheat / leaf disc preventative (brown rust). The class given is in vivo. Particulars: foliar, 200 ppm in the applied formulation, wheat leaf segments cv. Kanzler, inoculated 1 day after application, assessed 7 to 9 days after application, compared to untreated, read-out: disease control. Here is the method: Leaf disks or leaf segments of various plant species are cut from plants grown in a greenhouse. The cut leaf disks or segments are placed in multiwell plates (24-well format) onto water agar. The leaf disks are sprayed with a test solution before (preventative) or after (curative) inoculation. Compounds to be tested are prepared as DMSO solutions (max. 10 mg/mL) which are diluted to the appropriate concentration with 0.025% Tween20 just before spraying. The inoculated leaf disks or segments are incubated under defined conditions (temperature, relative humidity, light, etc.) according to the respective test system. A single evaluation of disease level is carried out 3 to 14 days after inoculation, depending on the pathosystem. Percent disease control relative to the untreated check leaf disks or segments is then calculated. Wheat leaf segments cv. Kanzler were placed on agar in multiwell plates (24-well format) and sprayed with the formulated test compound diluted in water. The leaf disks were inoculated with a spore suspension of the fungus 1 day after application. The inoculated leaf segments were incubated at 19° C. and 75% relative humidity (rh) under a light regime of 12 hours light/12 hours darkness in a climate cabinet and the activity of a compound was assessed as percent disease control compared to untreated when an appropriate level of disease damage appears in untreated check leaf segments (7 to 9 days after application). The following compounds at 200 ppm in the applied formulation give at least 80% disease control in this test when compared to untreated control leaf disks under the same conditions, which show extensive disease development.

Bounds are passed on as bounds.

In general, inhibition refers to the share of the control response that was lost under treatment. The term melting point denotes the temperature of the solid-liquid transition. With `CNC(=S)c1ccnn1Cc1ccc(-c2noc(C(F)(F)F)n2)cc1` [Compound 1.1, N-methyl-2-[[4-[5-(trifluoromethyl)-1,2,4-oxadiazol-3-yl]phenyl]methyl] pyrazole-3-carbothioamide], the melting point lay in the range of 159 to 164 °C. In data set [1], the inhibition at 20 ppm is at least 80%. Also, the pest or weed control at 200 ppm in the data set on Phakopsora pachyrhizi was at least 80%. The pest or weed control at 200 ppm in data set [2] is at least 80%. In addition, the pest or weed control at 200 ppm in data set [3] was at least 80%.

In the case of `CN(C)C(=S)c1ncn(Cc2ccc(-c3noc(C(F)(F)F)n3)cc2)n1` [Compound 1.2, N,N-dimethyl-1-[[4-[5-(trifluoromethyl)-1,2,4-oxadiazol-3-yl]phenyl]methyl]-1,2,4-triazole-3-carbothioamide], in data set [1], the inhibition at 20 ppm was at least 80%. For the same molecule, the pest or weed control at 200 ppm (in the data set on Phakopsora pachyrhizi; in data set [2]; in data set [3]) was at least 80% throughout.

For the molecule `FC(F)(F)c1nc(-c2ccc(Cn3ccc(C(=S)NC4CC4)n3)cc2)no1` [Compound 1.3, N-cyclopropyl-1-[[4-[5-(trifluoromethyl)-1,2,4-oxadiazol-3-yl]phenyl]methyl] pyrazole-3-carbothioamide], the inhibition at 20 ppm in data set [1] was at least 80%. Further, the pest or weed control at 200 ppm (in the data set with Phakopsora pachyrhizi; in data set [2]; in data set [3]) was at least 80% each time.

In the case of `CNC(=S)c1ncnn1Cc1ccc(-c2noc(C(F)(F)F)n2)cc1` [Compound 1.4, N-methyl-2-[[4-[5-(trifluoromethyl)-1,2,4-oxadiazol-3-yl]phenyl]methyl]-1,2,4-triazole-3-carbothioamide], the inhibition at 20 ppm in data set [1] was at least 80%. Moreover, the pest or weed control at 200 ppm (in the data set on Phakopsora pachyrhizi; in data set [2]; in data set [3]) was at least 80% in each case.

As for `CNC(=S)c1ncnn1Cc1ccc(-c2noc(C(F)(F)F)n2)s1` [Compound 1.5, N-methyl-2-[[5-[5-(trifluoromethyl)-1,2,4-oxadiazol-3-yl]-2-thienyl]methyl]-1,2,4-triazole-3-carbothioamide], the melting point fell in the range of 86 to 95 °C. In data set [1], the inhibition at 20 ppm is at least 80%. In addition, in the data set on Phakopsora pachyrhizi, the pest or weed control at 200 ppm was at least 80%. For the same molecule, the pest or weed control at 200 ppm in data set [2] is at least 80%. The pest or weed control at 200 ppm in data set [3] is at least 80%.

On to `CNC(=S)c1ccn(Cc2ccc(-c3noc(C(F)(F)F)n3)s2)n1` [Compound 1.6, N-methyl-1-[[5-[5-(trifluoromethyl)-1,2,4-oxadiazol-3-yl]-2-thienyl]methyl]pyrazole-3-carbothioamide], for which the melting point fell in the range of 118 to 122 °C. For the same molecule, the inhibition at 20 ppm in data set [1] was at least 80%. Besides, the pest or weed control at 200 ppm with Phakopsora pachyrhizi is at least 80%. For the same molecule, in data set [2], the pest or weed control at 200 ppm was at least 80%. In addition, in data set [3], the pest or weed control at 200 ppm was at least 80%.

`CCONC(=S)c1ccn(Cc2ccc(-c3noc(C(F)(F)F)n3)s2)n1` [Compound 1.7, N-ethoxy-1-[[5-[5-(trifluoromethyl)-1,2,4-oxadiazol-3-yl]-2-thienyl]methyl]pyrazole-3-carbothioamide]: the inhibition at 20 ppm in data set [1] is at least 80%. The pest or weed control at 200 ppm (with Phakopsora pachyrhizi; in data set [2]; in data set [3]) was at least 80% throughout.

For `CN(C)C(=S)c1ncn(Cc2ccc(-c3noc(C(F)(F)F)n3)s2)n1` [Compound 1.8, N,N-dimethyl-1-[[5-[5-(trifluoromethyl)-1,2,4-oxadiazol-3-yl]-2-thienyl]methyl]-1,2,4-triazole-3-carbothioamide], the melting point is 112 to 118 °C. In addition, in data set [1], the inhibition at 20 ppm was at least 80%. For the same molecule, the pest or weed control at 200 ppm in the data set with Phakopsora pachyrhizi was at least 80%. In addition, in data set [2], the pest or weed control at 200 ppm was at least 80%. Also, the pest or weed control at 200 ppm in data set [3] is at least 80%.

On to `CNC(=S)c1cnn(C(C)c2ccc(-c3noc(C(F)(F)F)n3)s2)c1` (centres unmarked) [Compound 1.9, N-methyl-1-[1-[5-[5-(trifluoromethyl)-1,2,4-oxadiazol-3-yl]-2-thienyl]ethyl]pyrazole-4-carbothioamide], for which the inhibition at 20 ppm in data set [1] is at least 80%. For the same molecule, the pest or weed control at 200 ppm (with Phakopsora pachyrhizi; in data set [2]; in data set [3]) was at least 80% in each case.

In turn, `CC(c1ccc(-c2noc(C(F)(F)F)n2)s1)n1cc(C(=S)N2CCC2)cn1` (centres unmarked) [Compound 1.10, azetidin-1-yl-[1-[1-[5-[5-(trifluoromethyl)-1,2,4-oxadiazol-3-yl]-2-thienyl]ethyl]pyrazol-4-yl]methanethione] showed a melting point of 75 to 83 °C. The inhibition at 20 ppm in data set [1] is at least 80%. Besides, in the data set on Phakopsora pachyrhizi, the pest or weed control at 200 ppm is at least 80%. Moreover, in data set [2], the pest or weed control at 200 ppm is at least 80%. The pest or weed control at 200 ppm in data set [3] was at least 80%.

As for `FC(F)(F)c1nc(-c2ccc(Cn3ccnc3C(=S)NC3CC3)s2)no1` [Compound 1.11, N-cyclopropyl-1-[[5-[5-(trifluoromethyl)-1,2,4-oxadiazol-3-yl]-2-thienyl]methyl] imidazole-2-carbothioamide], in data set [1], the inhibition at 20 ppm is at least 80%. Also, the pest or weed control at 200 ppm (with Phakopsora pachyrhizi; in data set [2]; in data set [3]) was at least 80% each time.

As to `CCCNC(=S)c1nccn1Cc1ccc(-c2noc(C(F)(F)F)n2)s1` [Compound 1.15, N-propyl-1-[[5-[5-(trifluoromethyl)-1,2,4-oxadiazol-3-yl]-2-thienyl]methyl] imidazole-2-carbothioamide], the inhibition at 20 ppm in data set [1] is at least 80%. In addition, the pest or weed control at 200 ppm (in the data set with Phakopsora pachyrhizi; in data set [2]; in data set [3]) was at least 80% in each case.
